Reference: US7029857B1, “Processes for obtaining compounds employing SNORF72 receptors” (H. Lundbeck A/S, priority 1999, dated 2006)
No end group written: not given here.

Experiments:
SNORF62 [1] = target: T1, SNORF62 (Homo sapiens, UniProt Q9HB89); experiment: Intracellular Ca2+ release (FLIPR) in SNORF62-transfected COS-7 cells; assay type: cell-based; design: The SNORF62 cDNA codes for a protein of 426 amino acids; expressed in transfected cells; host or cells: COS-7 (transient, DEAE-dextran)
T1 sequence (Q9HB89 1-426): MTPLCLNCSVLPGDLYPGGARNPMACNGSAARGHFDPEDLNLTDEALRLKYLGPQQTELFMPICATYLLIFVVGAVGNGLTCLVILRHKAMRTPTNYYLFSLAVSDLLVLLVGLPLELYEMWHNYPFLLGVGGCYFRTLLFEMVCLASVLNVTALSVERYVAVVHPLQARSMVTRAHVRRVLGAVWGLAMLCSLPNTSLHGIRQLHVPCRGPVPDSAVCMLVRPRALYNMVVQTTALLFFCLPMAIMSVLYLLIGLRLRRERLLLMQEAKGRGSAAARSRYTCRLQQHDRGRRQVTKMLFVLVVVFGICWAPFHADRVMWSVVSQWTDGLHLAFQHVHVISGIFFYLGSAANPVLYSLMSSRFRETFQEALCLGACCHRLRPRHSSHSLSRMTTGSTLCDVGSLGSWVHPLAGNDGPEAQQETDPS

SNORF62 [2] = target: T1, SNORF62; experiment: Calcium-activated Cl- currents in Xenopus oocytes injected with SNORF62 mRNA; assay type: cell-based; design: from linearized plasmids or PCR products containing the complete coding region of the gene; expressed in transfected cells; host or cells: Xenopus laevis oocytes injected with in vitro transcribed SNORF62 mRNA; conditions: 1 μM peptide, n=3
Method: Heterologous expression of GPCRs in Xenopus oocytes has been widely used to determine the identity of signaling pathways activated by agonist stimulation (Gundersen et al., 1983; Takahashi et al., 1987). Activation of the phospholipase C (PLC) pathway is assayed by applying a test compound in ND96 solution to oocytes previously injected with mRNA for the human SNORF62 and observing inward currents at a holding potential of approximately −80 mV. The appearance of currents that reverse at −25 mV and display other properties of the Ca^++-activated Cl^− channel is indicative of receptor-acitivation of PLC and release of IP3 and intracellular Ca^++.
In the present invention, oocytes were harvested from Xenopus laevis and injected with mRNA transcripts as previously described (Quick and Lester, 1994; Smith et al., 1997). SNORF62 mRNA transcript was synthesized using the T7 polymerase (“Message Machine”, Ambion) from linearized plasmids or PCR products containing the complete coding region of the gene. Oocytes were injected with 1–50 ng synthetic receptor RNA and incubated for 3–8 days at 17° C. Currents were recorded under dual electrode voltage clamp (Axon Instruments Inc.) with 3 M KCl-filled glass microelectrodes having resistances of 1–2 Mohm. Unless otherwise specified, oocytes were voltage clamped at a holding potential of −80 mV. […]

vector-transfected cells = experiment: Intracellular Ca2+ release in vector (mock)-transfected COS-7 cells; assay type: cell-based; conditions: mock COS-7 cells
Method: A typical protocol for the DEAE-dextran method as applied to COS-7 and HEK293 cells is described as follows. Cells to be used for transfection are split 24 hours prior to the transfection to provide flasks which are 70–80% confluent at the time of transfection. Briefly, 8 μg of receptor DNA plus 8 μg of any additional DNA needed (e.g. Gα protein expression vector, reporter construct, antibiotic resistance marker, mock vector, etc.) are added to 9 ml of complete DMEM plus DEAE-dextran mixture (10 mg/ml in PBS). Cells plated into a T225 flask (sub-confluent) are washed once with PBS and the DNA mixture is added to each flask. The cells are allowed to incubate for 30 minutes at 37° C., 5% CO2. Following the incubation, 36 ml of complete DMEM with 80 μM chloroquine is added to each flask and allowed to incubate an additional 3 hours. The medium is then aspirated and 24 ml of complete medium containing 10% DMSO for exactly 2 minutes and then aspirated. […]
The compounds of interest are diluted in wash buffer (Hank's BSS (without phenol red), 20 mM HEPES, 2.5 mM probenecid) to a 4× final concentration and aliquoted into a clear v-bottom plate (Nunc). […] Compounds are added to the cell plates and responses are measured using the FLIPR™ instrument. The data are then collected and analyzed using the FLIPR™ software and Graphpad Prism. […]

SNORF72 = target: T2, SNORF72 (Homo sapiens, UniProt Q9GZQ4, A395T); experiment: Intracellular Ca2+ release (FLIPR) in SNORF72-transfected COS-7 cells; assay type: cell-based; conditions: SNORF72-transfected COS-7 cells, peptides at 300 nM (FIG. 8)
T2 construct: expressed in transfected cells; host or cells: COS-7 (transient, DEAE-dextran)

control oocytes = experiment: Cl- currents in control oocytes lacking injection of foreign mRNA; assay type: cell-based, Xenopus laevis
Method: In the present invention, oocytes were harvested from Xenopus laevis and injected with mRNA transcripts as previously described (Quick and Lester, 1994; Smith et al., 1997). SNORF62 mRNA transcript was synthesized using the T7 polymerase (“Message Machine”, Ambion) from linearized plasmids or PCR products containing the complete coding region of the gene. Oocytes were injected with 1–50 ng synthetic receptor RNA and incubated for 3–8 days at 17° C. Currents were recorded under dual electrode voltage clamp (Axon Instruments Inc.) with 3 M KCl-filled glass microelectrodes having resistances of 1–2 Mohm. Unless otherwise specified, oocytes were voltage clamped at a holding potential of −80 mV. During recordings, oocytes were bathed in continuously flowing (1–3 mL/min) medium containing 96 mM NaCl, 2 mM KCl, 1.8 mM CaCl2, 1 mM MgCl2, and 5 mM HEPES, pH 7.5 (ND96). Drugs were applied either by local perfusion from a 10 μL glass capillary tube fixed at a distance of 0.5 mm from the oocyte, or by switching from a series of gravity fed perfusion lines.

T2 sequence (Q9GZQ4 whole entry A395T): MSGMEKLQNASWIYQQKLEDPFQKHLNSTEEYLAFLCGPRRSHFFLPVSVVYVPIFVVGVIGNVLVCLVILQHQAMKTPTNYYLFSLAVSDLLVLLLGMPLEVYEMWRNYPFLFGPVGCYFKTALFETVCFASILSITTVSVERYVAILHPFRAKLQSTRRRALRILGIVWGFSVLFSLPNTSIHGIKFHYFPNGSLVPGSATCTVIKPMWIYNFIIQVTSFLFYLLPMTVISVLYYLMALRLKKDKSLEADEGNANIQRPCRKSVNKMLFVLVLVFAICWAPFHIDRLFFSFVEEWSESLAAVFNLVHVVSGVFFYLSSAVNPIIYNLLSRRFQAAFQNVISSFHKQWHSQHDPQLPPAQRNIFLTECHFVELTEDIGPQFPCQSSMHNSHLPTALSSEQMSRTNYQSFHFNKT

## FRVDEEFQSPFASQSRGYFLFRPRN-NH2 [human NMU-25, FRVDEEFQSPFASQSRGYFLFRPRN—NH2]
SNORF62 [1]; pertussis toxin 100 ng/ml for 18-20 hours, n=2, data not shown
  Ca2+ release response following pretreatment with pertussis toxin: present
SNORF62 [1]; stimulation of Ca2+ release, SNORF62-transfected COS-7 cells, n = 2-7 (Table 1A)
  EC50: 4 ± 1.3 nM
SNORF62 [2]
  current amplitude: 1065±211 nA
vector-transfected cells
  effect on intracellular Ca2+ release in vector-transfected cells: no significant effect
SNORF72
  stimulation of intracellular Ca2+ release: stimulated
Control oocytes
  response in control oocytes: no response
